According to US20230348444A1, “NOVEL COMPOUNDS FOR USE IN THE TREATMENT OF DISEASES ASSOCIATED WITH ANGIOTENSIN II” (Vicore Pharma AB, priority 2020, published 2023):
Like-named read-outs stand apart in the source and are kept apart here.

Key:
[1] = Metabolic stability in pooled human liver microsomes with or without NADPH; type: in vitro ADME; conditions: pooled human liver microsomes 0.5 mg/mL in PBS, 1 uM test compound, 37° C.; for half-life at 1 uM: human, pooled human liver microsomes
Experimental: Pooled human liver microsomes in PBS at a concentration of 0.5 mg/mL was incubated with or without 1 mM NADPH for 70 min at 37° C. Test compound was added after 10 minutes to a final concentration of 1 uM. Samples were withdrawn at 0, 5, 15 and 60 minutes and added to test tubes containing acetonitrile, to stop the reaction, and with terfenadine, used as internal standard. After centrifugation at 10000×g for 5 minutes the supernatant was diluted 1:1 with 1% formic acid. Samples were separated on a reverse phase column and detected by triple quadrupole MSMS (Agilant model 6540). The concentration of the parent compound at the different time points was measured with an external standard curve using terfenadine as internal standard and the initial metabolic rate in the presence or absence of NADPH calculated.

CYP2C8 = molecular target: T1, CYP2C8 (Homo sapiens, UniProt P10632); assay: CYP inhibition in human liver microsomes (Eurofins protocol ITEMG232); type: in vitro ADME; conditions: substrates paclitaxel and amodiaquine; for CYP2C8 Inh %: 10 μM; for inhibition at 10 µM: probe paclitaxel and amodiaquine, read-out: CYP2C8 Inh %
T1 construct: using isoform-specific substrates incubated with human liver microsomes; tissue Eurofins ITEMG232; host or cells: human liver microsomes
T1 sequence (P10632 1-490): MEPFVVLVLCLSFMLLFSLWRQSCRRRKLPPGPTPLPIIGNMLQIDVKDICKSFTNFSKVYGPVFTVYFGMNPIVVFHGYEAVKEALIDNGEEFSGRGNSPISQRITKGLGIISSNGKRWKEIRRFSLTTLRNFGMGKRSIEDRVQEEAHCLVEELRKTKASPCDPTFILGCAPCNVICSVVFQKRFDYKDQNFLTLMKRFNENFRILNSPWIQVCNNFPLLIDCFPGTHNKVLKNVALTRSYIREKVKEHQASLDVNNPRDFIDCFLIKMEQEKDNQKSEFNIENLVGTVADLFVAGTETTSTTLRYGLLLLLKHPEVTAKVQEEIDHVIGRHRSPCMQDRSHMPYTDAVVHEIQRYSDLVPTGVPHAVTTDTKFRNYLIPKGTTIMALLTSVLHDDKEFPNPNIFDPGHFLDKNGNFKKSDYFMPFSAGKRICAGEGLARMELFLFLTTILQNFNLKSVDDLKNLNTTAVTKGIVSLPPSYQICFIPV
Experimental: (§1) The following substrates were used; CYP1A phenacetin, CYP2B6 bupropion, CYP2C8 paclitaxel and amodiaquine, CYP2C9 diclofenac, CYP2C19 omeprazole, CYP2D6 dextromethorphan, CYP3A midazolam and testosterone.
(§2) At the end of the incubation, the formation of metabolite was monitored by HPLC-MS/MS as the peak area response.

CYP3A4&5 = assay: CYP inhibition in human liver microsomes (Eurofins protocol ITEMG232), testosterone substrate; type: in vitro ADME; conditions: for CYP3A4&5 testosterone Inh %: 10 μM; for inhibition at 10 µM: probe testosterone, read-out: CYP3A4&5 testosterone Inh %
Experimental: as §1, §2

[2] = molecular target: T2, human recombinant AT2 receptor (Homo sapiens, UniProt P50052); assay: Binding to AT2 receptor, radiometric scintillation assay (Eurofins protocol ITEM26 and ITEM24); conditions: read-out: AT2 IC50, ligand 125I CGP 42112A, 1, 10, 100 and 1000 nM, 2-4 h at 37° C.
T2 sequence (P50052 1-363): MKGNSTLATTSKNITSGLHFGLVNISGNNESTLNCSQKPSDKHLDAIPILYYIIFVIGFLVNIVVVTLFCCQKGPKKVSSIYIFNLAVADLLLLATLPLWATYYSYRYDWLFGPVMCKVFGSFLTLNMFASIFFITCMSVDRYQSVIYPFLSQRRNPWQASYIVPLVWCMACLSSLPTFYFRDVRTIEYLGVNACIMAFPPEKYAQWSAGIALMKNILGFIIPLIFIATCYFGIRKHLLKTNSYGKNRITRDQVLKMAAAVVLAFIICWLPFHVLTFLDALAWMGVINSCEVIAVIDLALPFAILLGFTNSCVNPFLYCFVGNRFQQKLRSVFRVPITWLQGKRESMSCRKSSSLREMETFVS
Experimental: (§3) Compounds were evaluated for binding to the human recombinant AT2 and AT1 receptor according to Eurofins protocol ITEM26 and ITEM24 using a radiometric scintillation assay.

[3] = molecular target: T3, human recombinant AT1 receptor (Homo sapiens, UniProt P30556); assay: Binding to AT1 receptor, radiometric scintillation assay (Eurofins protocol ITEM26 and ITEM24); conditions: read-out: AT1 IC50, ligand 125I (sar1,Ile8)-AT-II, 1 and 10 uM, 2-4 h at 37° C.
T3 sequence (P30556 1-359): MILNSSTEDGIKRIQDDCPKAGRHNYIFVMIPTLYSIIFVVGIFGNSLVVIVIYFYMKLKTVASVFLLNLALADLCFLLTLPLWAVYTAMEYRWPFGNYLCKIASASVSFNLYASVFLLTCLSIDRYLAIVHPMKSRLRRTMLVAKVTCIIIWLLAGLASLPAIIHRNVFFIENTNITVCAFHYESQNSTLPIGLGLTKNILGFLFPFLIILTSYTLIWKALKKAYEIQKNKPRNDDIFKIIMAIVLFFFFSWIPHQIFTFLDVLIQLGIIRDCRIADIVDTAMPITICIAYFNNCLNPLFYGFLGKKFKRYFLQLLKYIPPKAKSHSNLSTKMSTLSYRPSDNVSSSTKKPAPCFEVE
Experimental: as §3

CYP2C9 = CYP2C9 (Homo sapiens, UniProt P11712); assay: CYP inhibition in human liver microsomes (Eurofins protocol ITEMG232); type: in vitro ADME; design: using isoform-specific substrates incubated with human liver microsomes; tissue Eurofins ITEMG232; host or cells: human liver microsomes; conditions: substrate diclofenac; for CYP2C9 Inh %: 10 μM; for inhibition at 10 µM: probe diclofenac, read-out: CYP2C9 Inh %
Experimental: as §1, §2

CYP3A4 = CYP3A4 (Homo sapiens, UniProt P08684); assay: CYP inhibition in human liver microsomes (Eurofins protocol ITEMG232), midazolam substrate; type: in vitro ADME; design: using isoform-specific substrates incubated with human liver microsomes; tissue Eurofins ITEMG232; host or cells: human liver microsomes; conditions: for CYP3A4 midazolam Inh %: 10 μM; for inhibition at 10 µM: probe midazolam, read-out: CYP3A4 midazolam Inh %
Experimental: as §1, §2

[4] = with 1 mM NADPH, read-out: T1/2, +NaDPH
[5] = without NADPH, read-out: T1/2, no NaDPH

CYP2C9, sequence (P11712 whole entry, canonical isoform): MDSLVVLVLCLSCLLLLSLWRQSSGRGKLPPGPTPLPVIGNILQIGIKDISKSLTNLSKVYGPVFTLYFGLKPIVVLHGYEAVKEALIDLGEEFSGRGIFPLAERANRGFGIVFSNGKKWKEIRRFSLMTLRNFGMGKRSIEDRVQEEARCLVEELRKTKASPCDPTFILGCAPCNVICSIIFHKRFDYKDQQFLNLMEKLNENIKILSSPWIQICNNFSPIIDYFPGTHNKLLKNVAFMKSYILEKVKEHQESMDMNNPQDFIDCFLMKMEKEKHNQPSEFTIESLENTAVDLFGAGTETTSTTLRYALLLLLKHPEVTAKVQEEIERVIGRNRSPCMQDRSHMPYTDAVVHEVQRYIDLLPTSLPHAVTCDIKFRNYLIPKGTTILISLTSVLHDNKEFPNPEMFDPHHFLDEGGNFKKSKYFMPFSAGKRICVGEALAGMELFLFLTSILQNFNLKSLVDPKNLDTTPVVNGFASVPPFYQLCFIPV
CYP3A4, sequence (P08684 whole entry, canonical isoform): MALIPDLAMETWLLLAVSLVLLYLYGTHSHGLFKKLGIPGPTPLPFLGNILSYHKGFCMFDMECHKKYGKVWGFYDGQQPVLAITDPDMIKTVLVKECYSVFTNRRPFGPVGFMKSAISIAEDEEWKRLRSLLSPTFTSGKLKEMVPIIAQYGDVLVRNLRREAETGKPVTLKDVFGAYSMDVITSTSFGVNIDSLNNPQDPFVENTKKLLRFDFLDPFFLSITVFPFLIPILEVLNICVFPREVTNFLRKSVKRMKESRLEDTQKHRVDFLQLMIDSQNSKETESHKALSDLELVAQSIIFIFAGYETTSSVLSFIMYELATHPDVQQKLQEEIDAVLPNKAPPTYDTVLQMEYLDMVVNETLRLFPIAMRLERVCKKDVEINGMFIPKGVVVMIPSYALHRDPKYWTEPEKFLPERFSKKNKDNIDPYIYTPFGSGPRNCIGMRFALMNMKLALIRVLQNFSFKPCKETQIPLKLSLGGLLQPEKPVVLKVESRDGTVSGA

CCOC(=O)NS(=O)(=O)c1sc(CC(C)C)cc1-c1ccc(Cn2ccnc2C)c(F)c1.O=C(O)C(F)(F)F [Example 1, Ethyl (3-(3-fluoro-4-((2-methyl-1H-imidazol-1-yl)methyl)phenyl)-5-isobutylthiophen-2-yl)sulfonvicarbamate trifluoroacetic acid]
T1/2, +NaDPH ([1]; with 1 mM NADPH): 50 min
T1/2, no NaDPH ([1]; without NADPH): 60 min
CYP2C8 Inh % (CYP2C8): 37%
CYP3A4&5 testosterone Inh % (CYP3A4&5): −2%
IC50 [2]: 2.4 nM
IC50 [3]: > 1000 nM
CYP2C9 Inh % (CYP2C9): 64%
CYP3A4 midazolam Inh % (CYP3A4): −42%

COCCOC(=O)NS(=O)(=O)c1sc(CC(C)C)cc1-c1ccc(Cn2ccnc2C)c(F)c1.O=C(O)C(F)(F)F [Example 3]
T1/2, +NaDPH ([1]; with 1 mM NADPH): >60 min
T1/2, no NaDPH ([1]; without NADPH): >60 min
CYP2C8 Inh % (CYP2C8): 26%
CYP3A4&5 testosterone Inh % (CYP3A4&5): −20%
IC50 [2]: 3.5 nM
IC50 [3]: > 1000 nM
CYP2C9 Inh % (CYP2C9): 58%
CYP3A4 midazolam Inh % (CYP3A4): −52%

CCc1nccn1Cc1ccc(-c2cc(CC(C)C)sc2S(=O)(=O)NC(=O)OCc2ccc(F)cc2)cc1F.O=C(O)C(F)(F)F [Example 6, 4-Fluorobenzyl (3-(4((2-ethyl-1H-imidazol-1-yl)methyl)-3-fluorophenyl)-5-isobutylthio-phen-2-yl)sulfonylcarbamate trifluoroacetic acid]
T1/2, +NaDPH ([1]; with 1 mM NADPH): 7 min
T1/2, no NaDPH ([1]; without NADPH): 50 min
CYP2C8 Inh % (CYP2C8): 55%
CYP3A4&5 testosterone Inh % (CYP3A4&5): 13%
IC50 [2]: 1.8 nM
IC50 [3]: > 1000 nM
CYP2C9 Inh % (CYP2C9): 72%
CYP3A4 midazolam Inh % (CYP3A4): −39%

CCOC(=O)NS(=O)(=O)c1sc(CC(C)C)cc1-c1ccc(Cn2ccnc2CC)c(F)c1.O=C(O)C(F)(F)F [Example 7, Ethyl (3-(4-((2-ethyl-1H-imidazol-1-yl)methyl)-3-fluorophenyl)-5-isobutylthiophen-2-30 yl)sulfonylcarbamate trifluoroacetic acid]
T1/2, +NaDPH ([1]; with 1 mM NADPH): 40 min
T1/2, no NaDPH ([1]; without NADPH): 40 min
CYP2C8 Inh % (CYP2C8): 66%
CYP3A4&5 testosterone Inh % (CYP3A4&5): 18%
IC50 [2]: 1.8 nM
IC50 [3]: > 1000 nM
CYP2C9 Inh % (CYP2C9): 64%
CYP3A4 midazolam Inh % (CYP3A4): −31%

CCOC(=O)NS(=O)(=O)c1sc(CC(C)C)cc1-c1ccc(Cn2ccnc2C(C)C)c(F)c1.O=C(O)C(F)(F)F [Example 8, Ethyl (3-(3-fluoro-4-((2-isopropyl-1H-imidazol-1-yl)methyl)phenyl)-5-isobutylthio-phen-2-yl)sulfonylcarbamate trifluoroacetic acid]
T1/2, +NaDPH ([1]; with 1 mM NADPH): 46 min
T1/2, no NaDPH ([1]; without NADPH): 53 min
CYP2C8 Inh % (CYP2C8): 26%
CYP3A4&5 testosterone Inh % (CYP3A4&5): −20%
IC50 [2]: 3.5 nM
IC50 [3]: > 1000 nM
CYP2C9 Inh % (CYP2C9): 58%
CYP3A4 midazolam Inh % (CYP3A4): −52%

Cc1nccn1Cc1c(F)cc(-c2cc(CC(C)C)sc2S(=O)(=O)NC(=O)OCCO)cc1F [Example 18, 2-Hydroxyethyl (3-(3,5-difluoro-4-((2-methyl-1H-imidazol-1-yl)methyl)phenv1)-5-isobutylthiophen-2-yl)sulfonylcarbamate]
T1/2, +NaDPH ([1]; with 1 mM NADPH): 4 min
T1/2, no NaDPH ([1]; without NADPH): >60 min
CYP2C8 Inh % (CYP2C8): 56.1%
CYP3A4&5 testosterone Inh % (CYP3A4&5): 1.7%
IC50 [2]: 0.87 nM
IC50 [3]: 16000 nM
CYP2C9 Inh % (CYP2C9): 77.0%
CYP3A4 midazolam Inh % (CYP3A4): −35.6%

Cc1nccn1Cc1ccc(-c2cc(CC(C)C)sc2S(=O)(=O)NC(=O)OCCOC(=O)C(C)(C)C)cc1F [Example 19, 2-((((3-(3-Fluoro-4-((2-methyl-1H-imidazol-1-yl)methyl)phenyl)-5-isobutylthiophen-2-yl)sulfonyl)carbamoyl)oxy)ethyl pivalate]
half-life at 1 uM [1, 4]: 1 min
half-life at 1 uM [1, 5]: 12 min
inhibition at 10 µM (CYP2C8): 83.2%
inhibition at 10 µM (CYP3A4&5): 20.7%
inhibition at 10 µM (CYP2C9): 62.3%
inhibition at 10 µM (CYP3A4): 43.4%

CC(C)Cc1cc(-c2ccc(Cn3ccnc3C(C)(C)C)c(F)c2)c(S(=O)(=O)NC(=O)c2ccccn2)s1 [Example 27, N-((3-(4-((2-(Tert-Butyl)-1H-imidazol-1-yl)methyl)-3-fluorophenyl)-5-isobutylthio-phen-2-yl)sulfonyl)picolinamide]
half-life at 1 uM [1, 4]: 4 min
half-life at 1 uM [1, 5]: 4 min
inhibition at 10 µM (CYP2C8): 65.7%
inhibition at 10 µM (CYP3A4&5): 27.4%
inhibition at 10 µM (CYP2C9): 58.4%
inhibition at 10 µM (CYP3A4): 7.3%
